Publication PMC4450297, “Screening Active Compounds from Garcinia Species Native to China Reveals Novel Compounds Targeting the STAT/JAK Signaling Pathway” (BioMed Research International, 2015)

Columns and labels:
Experiment in all cases: Cell panel screen (CellTiter-Glo)
Type in all cases: cell-based, human
M059J = M059J (Brain), 20 micromolar, 72 hrs
Method in brief: (§1)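 Single-concentration screen: 20 μM compound, 72 h, versus DMSO-only untreated cells. Viability read by CellTiter-Glo luminescence; % inhibition = (untreated − treated)/(untreated − no-cell background) × 100. Cells grown in recommended media plus 10% FBS at 37° C.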

C8166 = C8166 (Leukemia), 20 micromolar, 72 hrs
Method in brief: as §1

C3A = C3A (Liver), 20 micromolar, 72 hrs
Method in brief: as §1

NCI-H28 = NCI-H28 (Lung), 20 micromolar, 72 hrs
Method in brief: as §1

ZR-75-30 = ZR-75-30 (Breast), 20 micromolar, 72 hrs
Method in brief: as §1

T98G = T98G (Brain), 20 micromolar, 72 hrs
Method in brief: as §1

NCI-H2347 = NCI-H2347 (Lung), 20 micromolar, 72 hrs
Method in brief: as §1

A704 = A704 (Kidney), 20 micromolar, 72 hrs
Method in brief: as §1

NCI-H2405 = NCI-H2405 (Lung), 20 micromolar, 72 hrs
Method in brief: as §1

ChaGo-K-1 = ChaGo-K-1 (Lung), 20 micromolar, 72 hrs
Method in brief: as §1

HCC1599 = HCC1599 (Breast), 20 micromolar, 72 hrs
Method in brief: as §1

J82 = J82 (Urinary bladder), 20 micromolar, 72 hrs
Method in brief: as §1

Bel-7402 = Bel-7402 (Liver), 20 micromolar, 72 hrs
Method in brief: as §1

BT-474 = BT-474 (Breast), 20 micromolar, 72 hrs
Method in brief: as §1

SW13 = SW13 (Adrenal gland), 20 micromolar, 72 hrs
Method in brief: as §1

NCI-H524 = NCI-H524 (Lung), 20 micromolar, 72 hrs
Method in brief: as §1

RL95 = RL95 (Uterus), 20 micromolar, 72 hrs
Method in brief: as §1

HT-1197 = HT-1197 (Urinary bladder), 20 micromolar, 72 hrs
Method in brief: as §1

BT-549 = BT-549 (Breast), 20 micromolar, 72 hrs
Method in brief: as §1

HEC-1-A = HEC-1-A (Uterus), 20 micromolar, 72 hrs
Method in brief: as §1

Panc 03.27 = Panc 03.27 (Pancreas), 20 micromolar, 72 hrs
Method in brief: as §1

HCC1937 = HCC1937 (Breast), 20 micromolar, 72 hrs
Method in brief: as §1

T47D = T47D (Breast), 20 micromolar, 72 hrs
Method in brief: as §1

MSTO-211-H = MSTO-211-H (Lung), 20 micromolar, 72 hrs
Method in brief: as §1

CCF-STTG1 = CCF-STTG1 (Brain), 20 micromolar, 72 hrs
Method in brief: as §1

NCI-H1623 = NCI-H1623 (Lung), 20 micromolar, 72 hrs
Method in brief: as §1

A498 = A498 (listed under Lung), 20 micromolar, 72 hrs
Method in brief: as §1

HGC-27 = HGC-27 (Stomach), 20 micromolar, 72 hrs
Method in brief: as §1

HPAF-II = HPAF-II (Pancreas), 20 micromolar, 72 hrs
Method in brief: as §1

TCCSUP = TCCSUP (Urinary bladder), 20 micromolar, 72 hrs
Method in brief: as §1

NCI-H1694 = NCI-H1694 (Lung), 20 micromolar, 72 hrs
Method in brief: as §1

HCC1569 = HCC1569 (Breast), 20 micromolar, 72 hrs
Method in brief: as §1

Colo 205 = conditions: Colo 205, 20 micromolar, 72 hrs
Method in brief: as §1

NCI-H1770 = NCI-H1770 (Lung), 20 micromolar, 72 hrs
Method in brief: as §1

CW-2 = CW-2 (Colon), 20 micromolar, 72 hrs
Method in brief: as §1

HCC1395 = HCC1395 (Breast), 20 micromolar, 72 hrs
Method in brief: as §1

SMILES: CC(C)=CCc1c(O)cc2oc3cc(O)c(O)c(CCC(C)(C)O)c3c(=O)c2c1O [bn-16, Garcinone C]
- Percent Inhibition (M059J): 78%
- Percent Inhibition (C8166): 88%
- Percent Inhibition (C3A): 43%
- Percent Inhibition (NCI-H28): 71%
- Percent Inhibition (ZR-75-30): 94%
- Percent Inhibition (T98G): 91%
- Percent Inhibition (NCI-H2347): 73%
- Percent Inhibition (A704): 62%
- Percent Inhibition (NCI-H2405): 73%
- Percent Inhibition (ChaGo-K-1): 91%
- Percent Inhibition (HCC1599): 94%
- Percent Inhibition (J82): 85%
- Percent Inhibition (Bel-7402): 91%
- Percent Inhibition (BT-474): 83%
- Percent Inhibition (SW13): 96%
- Percent Inhibition (NCI-H524): 98%
- Percent Inhibition (RL95): 69%
- Percent Inhibition (HT-1197): 85%
- Percent Inhibition (BT-549): 74%
- Percent Inhibition (HEC-1-A): 61%
- Percent Inhibition (Panc 03.27): 86%
- Percent Inhibition (HCC1937): 80%
- Percent Inhibition (T47D): 62%
- Percent Inhibition (MSTO-211-H): 93%
- Percent Inhibition (CCF-STTG1): 65%
- Percent Inhibition (NCI-H1623): 67%
- Percent Inhibition (A498): 65%
- Percent Inhibition (HGC-27): 77%
- Percent Inhibition (HPAF-II): 75%
- Percent Inhibition (TCCSUP): 88%
- Percent Inhibition (NCI-H1694): 99%
- Percent Inhibition (HCC1569): 81%
- Percent Inhibition (Colo 205): 97%
- Percent Inhibition (NCI-H1770): 87%
- Percent Inhibition (CW-2): 95%
- Percent Inhibition (HCC1395): 94%

SMILES: O=C(c1ccc(O)c(O)c1)c1c(O)cc(O)cc1O [gl-25]
- Percent Inhibition (M059J): -9%
- Percent Inhibition (C8166): 3%
- Percent Inhibition (C3A): -3%
- Percent Inhibition (NCI-H28): -9%
- Percent Inhibition (ZR-75-30): -3%
- Percent Inhibition (T98G): -2%
- Percent Inhibition (NCI-H2347): -13%
- Percent Inhibition (A704): -5%
- Percent Inhibition (NCI-H2405): -9%
- Percent Inhibition (ChaGo-K-1): -26%
- Percent Inhibition (HCC1599): 11%
- Percent Inhibition (J82): 1%
- Percent Inhibition (Bel-7402): -5%
- Percent Inhibition (BT-474): -3%
- Percent Inhibition (SW13): -10%
- Percent Inhibition (NCI-H524): -74%
- Percent Inhibition (RL95): -8%
- Percent Inhibition (HT-1197): 5%
- Percent Inhibition (BT-549): -10%
- Percent Inhibition (HEC-1-A): 5%
- Percent Inhibition (Panc 03.27): -14%
- Percent Inhibition (HCC1937): 0%
- Percent Inhibition (T47D): -8%
- Percent Inhibition (MSTO-211-H): -30%
- Percent Inhibition (CCF-STTG1): 9%
- Percent Inhibition (NCI-H1623): 0%
- Percent Inhibition (A498): -10%
- Percent Inhibition (HGC-27): -3%
- Percent Inhibition (HPAF-II): 1%
- Percent Inhibition (TCCSUP): -5%
- Percent Inhibition (NCI-H1694): -12%
- Percent Inhibition (HCC1569): 1%
- Percent Inhibition (Colo 205): -1%
- Percent Inhibition (NCI-H1770): -10%
- Percent Inhibition (CW-2): -2%
- Percent Inhibition (HCC1395): -8%

SMILES: CC(C)=CCc1c(O)cc2oc3c(c(=O)c2c1O)C(CC=C(C)C)(CC=C(C)C)C(=O)C(O)=C3 [bn-2, Allanxanthone C]
- Percent Inhibition (M059J): 51%
- Percent Inhibition (C8166): 86%
- Percent Inhibition (C3A): 39%
- Percent Inhibition (NCI-H28): 52%
- Percent Inhibition (ZR-75-30): 86%
- Percent Inhibition (T98G): 98%
- Percent Inhibition (NCI-H2347): 40%
- Percent Inhibition (A704): 4%
- Percent Inhibition (NCI-H2405): 40%
- Percent Inhibition (ChaGo-K-1): 75%
- Percent Inhibition (HCC1599): 79%
- Percent Inhibition (J82): 43%
- Percent Inhibition (Bel-7402): 64%
- Percent Inhibition (BT-474): 22%
- Percent Inhibition (SW13): 15%
- Percent Inhibition (NCI-H524): 97%
- Percent Inhibition (RL95): 70%
- Percent Inhibition (HT-1197): 38%
- Percent Inhibition (BT-549): 54%
- Percent Inhibition (HEC-1-A): 51%
- Percent Inhibition (Panc 03.27): 48%
- Percent Inhibition (HCC1937): 75%
- Percent Inhibition (T47D): 54%
- Percent Inhibition (MSTO-211-H): 72%
- Percent Inhibition (CCF-STTG1): 52%
- Percent Inhibition (NCI-H1623): 49%
- Percent Inhibition (A498): 34%
- Percent Inhibition (HGC-27): 53%
- Percent Inhibition (HPAF-II): 28%
- Percent Inhibition (TCCSUP): 75%
- Percent Inhibition (NCI-H1694): 99%
- Percent Inhibition (HCC1569): 63%
- Percent Inhibition (Colo 205): 69%
- Percent Inhibition (NCI-H1770): 90%
- Percent Inhibition (CW-2): 72%
- Percent Inhibition (HCC1395): 84%
